Source: patent US20240174618A1, “SUBSTITUTED (2-HETEROARYLOXYPHENYL)SULFONATES, SALTS THEREOF AND THEIR USE AS HERBICIDAL AGENTS” (Bayer Aktiengesellschaft, priority 2021, published 2024)

Legend:
Type in all cases: in vivo
[1] = tested on: Echinochloa crus-galli (ECHCG); experiment: B. Herbicidal post-emergence efficacy, ECHCG; conditions: rated visually after about 3 weeks
Summary of the method: (§1)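 First, seeds were sown in sandy loam and grown 2 to 3 weeks under controlled greenhouse conditions. Next, foliage at the one-leaf stage received the formulated compound in water with 0.5% additive (600 L/ha, 1280 g/ha or less). Finally, damage was rated visually after about 3 weeks against untreated plants.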

[2] = tested on: Amaranthus retroflexus (AMARE); experiment: A. Herbicidal pre-emergence efficacy, AMARE
Summary of the method: (§2)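 Applied before emergence onto covering soil at rates of 1280 g/ha or less, using 600 L/ha spray water with 0.5% additive. Scoring: visual % efficacy after ~3 weeks, greenhouse.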

Kochia scoparia (KCHSC) [3] = experiment: B. Herbicidal post-emergence efficacy, KCHSC; conditions: for Post-emergence efficacy against KCHSC in %: rated visually after about 3 weeks
Summary of the method: as §1

[4] = tested on: Matricaria inodora (MATIN); experiment: B. Herbicidal post-emergence efficacy, MATIN
Description: (§3) Seeds of mono- and dicotyledonous weed plants were placed in plastic pots in sandy loam soil (doubly sown with in each case one species of mono- or dicotyledonous weed plants per pot), covered with soil and cultivated in a greenhouse under controlled growth conditions. 2 to 3 weeks after sowing, the test plants were treated at the one-leaf stage. The compounds of the invention, formulated in the form of wettable powders (WP) or as emulsion concentrates (EC), were applied onto the green parts of the plants as aqueous suspension or emulsion with addition of 0.5% additive at a water application rate of 600 liters per hectare (converted). After the test plants had been kept in the greenhouse under optimum growth conditions for about 3 weeks, the activity of the preparations was rated visually in comparison to untreated controls.
(§4) For example, • 100% efficacy=plants have died, • 0% efficacy=like untreated control plants
(§5) Tables B1a to B12c below show the effects of selected inventive compounds of the general formula (I) according to table 1 on various harmful plants at an application rate corresponding to 1280 g/ha or less, which were obtained by the experimental procedure mentioned above.

Setaria viridis (SETVI) [5] = experiment: A. Herbicidal pre-emergence efficacy, SETVI
Summary of the method: as §2

Lolium rigidum (LOLRI) = experiment: A. Herbicidal pre-emergence efficacy, LOLRI; conditions: dosage 1280 g/ha
Summary of the method: as §2

[6] = tested on: Digitaria sanguinalis (DIGSA); experiment: A. Herbicidal pre-emergence efficacy, DIGSA; conditions: scored visually after about 3 weeks vs untreated controls
Summary of the method: as §2

[7] = tested on: Abutilon theophrasti (ABUTH); experiment: A. Herbicidal pre-emergence efficacy, ABUTH; conditions: scored visually after about 3 weeks vs untreated controls
Summary of the method: as §2

[8] = tested on: Abutilon theophrasti (ABUTH); experiment: B. Herbicidal post-emergence efficacy, ABUTH; conditions: rated visually after about 3 weeks
Summary of the method: as §1

Poa annua (POAAN) [9] = experiment: B. Herbicidal post-emergence efficacy, POAAN
Summary of the method: as §1

[10] = tested on: Matricaria inodora (MATIN); experiment: A. Herbicidal pre-emergence efficacy, MATIN
Summary of the method: as §2

[11] = tested on: Amaranthus retroflexus (AMARE); experiment: B. Herbicidal post-emergence efficacy, AMARE
Summary of the method: as §1

Poa annua (POAAN) [12] = experiment: A. Herbicidal pre-emergence efficacy, POAAN
Summary of the method: as §2

Kochia scoparia (KCHSC) [13] = experiment: A. Herbicidal pre-emergence efficacy, KCHSC; conditions: pre-emergence
Summary of the method: as §2

Setaria viridis (SETVI) [14] = experiment: B. Herbicidal post-emergence efficacy, SETVI
Description: as §3, §4, §5

[15] = tested on: Alopecurus myosuroides (ALOMY); experiment: A. Herbicidal pre-emergence efficacy, ALOMY; conditions: 1280 g/ha; scored visually after about 3 weeks vs untreated controls
Text: Seeds of mono- and dicotyledonous weed plants were placed in plastic pots in sandy loam soil (doubly sown with one species each of mono- or dicotyledonous weed plants per pot) and covered with soil. The compounds of the invention, formulated in the form of wettable powders (WP) or as emulsion concentrates (EC), were then applied onto the surface of the covering soil as aqueous suspension or emulsion with addition of 0.5% additive at a water application rate of 600 liters per hectare (converted). After the treatment, the pots were placed in a greenhouse and kept under good growth conditions for the test plants. After about 3 weeks, the efficacy of the preparations was scored visually in comparison with untreated controls as percentages.
For example, • 100% efficacy=plants have died, • 0% efficacy=like untreated control plants.
Tables A1a to A12c below show the effects of selected compounds of the general formula (I) according to table 1 on various harmful plants at an application rate corresponding to 1280 g/ha or less, which were obtained by the experimental procedure mentioned above.

Stellaria media (STEME) [16] = experiment: B. Herbicidal post-emergence efficacy, STEME
Summary of the method: as §1

[17] = tested on: Digitaria sanguinalis (DIGSA); experiment: B. Herbicidal post-emergence efficacy, DIGSA; conditions: rated visually after about 3 weeks
Description: as §3, §4, §5

Veronica persica (VERPE) [18] = experiment: B. Herbicidal post-emergence efficacy, VERPE
Summary of the method: as §1

Veronica persica (VERPE) [19] = experiment: A. Herbicidal pre-emergence efficacy, VERPE
Summary of the method: as §2

[20] = tested on: Echinochloa crus-galli (ECHCG); experiment: A. Herbicidal pre-emergence efficacy, ECHCG; conditions: 1280 g/ha; scored visually after about 3 weeks vs untreated controls
Summary of the method: as §2

Stellaria media (STEME) [21] = experiment: A. Herbicidal pre-emergence efficacy, STEME
Summary of the method: as §2

In the case of `O=S(=O)(CC1CC1(Cl)Cl)Oc1c(F)cccc1Oc1ncc(Cl)cn1` (stereo not drawn) [Example I-57], the “Post-emergence efficacy against ECHCG in %” value ([1]; 320 g/ha) is reported as 90%, the “Post-emergence efficacy against ECHCG in %” value ([1]; 1280 g/ha) is reported as 90% and the “Pre-emergence efficacy against AMARE in %” value ([2]; 80 g/ha) is reported as 100%. For the same compound, the “Pre-emergence efficacy against AMARE in %” value ([2]; 320 g/ha) was 100%, the “Pre-emergence efficacy against AMARE in %” value ([2]; 1280 g/ha) was 100% and the “Post-emergence efficacy against KCHSC in %” value (Kochia scoparia (KCHSC) [3]; 80 g/ha) was 90%. For the same compound, the “Post-emergence efficacy against KCHSC in %” value (Kochia scoparia (KCHSC) [3]; 320 g/ha) was 90%, the “Post-emergence efficacy against KCHSC” value (Kochia scoparia (KCHSC) [3]; 1280 g/ha) was 90% and the “Post-emergence efficacy against MATIN” value ([4]; 320 g/ha) was 90%. The “Post-emergence efficacy against MATIN” value ([4]; 1280 g/ha) was 90%, the “Pre-emergence efficacy against SETVI” value (Setaria viridis (SETVI) [5]; dosage 80 g/ha) was 90% and the “Pre-emergence efficacy against SETVI” value (Setaria viridis (SETVI) [5]; dosage 320 g/ha) was 100%. The “Pre-emergence efficacy against SETVI” value (Setaria viridis (SETVI) [5]; dosage 1280 g/ha) was 100%, the “Pre-emergence efficacy against LOLRI” value (Lolium rigidum (LOLRI)) was 100% and the “Pre-emergence efficacy against DIGSA” value ([6]; 80 g/ha) was 90%. For the same compound, the “Pre-emergence efficacy against DIGSA” value ([6]; 320 g/ha) was 100%, the “Pre-emergence efficacy against DIGSA” value ([6]; 1280 g/ha) was 100% and the “Pre-emergence efficacy against ABUTH” value ([7]; 320 g/ha) was 90%. The “Pre-emergence efficacy against ABUTH” value ([7]; 1280 g/ha) was 100%, the “Post-emergence efficacy against ABUTH in %” value ([8]; 80 g/ha) was 90% and the “Post-emergence efficacy against ABUTH in %” value ([8]; 320 g/ha) was 90%. The “Post-emergence efficacy against ABUTH in %” value ([8]; 1280 g/ha) was 90%, the “Post-emergence efficacy against POAAN” value (Poa annua (POAAN) [9]; 320 g/ha) was 90% and the “Post-emergence efficacy against POAAN” value (Poa annua (POAAN) [9]; 1280 g/ha) was 90%. The “Pre-emergence efficacy against MATIN” value ([10]; 320 g/ha, scored visually after about 3 weeks vs untreated controls) was 90%, the “Pre-emergence efficacy against MATIN” value ([10]; pre-emergence, dosage 1280 g/ha) was 100% and the “Post-emergence efficacy against AMARE” value ([11]; 80 g/ha) was 90%. The “Post-emergence efficacy against AMARE” value ([11]; 320 g/ha) was 90%, the “Post-emergence efficacy against AMARE” value ([11]; 1280 g/ha) was 90% and the “Pre-emergence efficacy against POAAN” value (Poa annua (POAAN) [12]; dosage 320 g/ha) was 100%. The “Pre-emergence efficacy against POAAN” value (Poa annua (POAAN) [12]; dosage 1280 g/ha) was 100%, the “Pre-emergence efficacy against KCHSC” value (Kochia scoparia (KCHSC) [13]; dosage 320 g/ha) was 100% and the “Pre-emergence efficacy against KCHSC” value (Kochia scoparia (KCHSC) [13]; dosage 1280 g/ha) was 100%. For the same compound, the “Post-emergence efficacy against SETVI” value (Setaria viridis (SETVI) [14]; 320 g/ha) was 90%, the “Post-emergence efficacy against SETVI” value (Setaria viridis (SETVI) [14]; 1280 g/ha) was 90% and the “Pre-emergence efficacy against ALOMY” value [15] was 100%. The “Post-emergence efficacy against STEME” value (Stellaria media (STEME) [16]; 80 g/ha) was 90%, the “Post-emergence efficacy against STEME” value (Stellaria media (STEME) [16]; 320 g/ha) was 90% and the “Post-emergence efficacy against STEME” value (Stellaria media (STEME) [16]; 1280 g/ha) was 90%. For the same compound, the “Post-emergence efficacy against DIGSA in %” value ([17]; 320 g/ha) was 90%, the “Post-emergence efficacy against DIGSA in %” value ([17]; 1280 g/ha) was 90% and the “Post-emergence efficacy against VERPE” value (Veronica persica (VERPE) [18]; 80 g/ha) was 90%. For the same compound, the “Post-emergence efficacy against VERPE” value (Veronica persica (VERPE) [18]; 1280 g/ha) was 90%, the “Pre-emergence efficacy against VERPE in %” value (Veronica persica (VERPE) [19]; 320 g/ha) was 90% and the “Pre-emergence efficacy against VERPE in %” value (Veronica persica (VERPE) [19]; 1280 g/ha) was 100%. The “Pre-emergence efficacy against ECHCG” value [20] was 100%, the “Pre-emergence efficacy against STEME” value (Stellaria media (STEME) [21]; dosage 320 g/ha) was 100% and the “Pre-emergence efficacy against STEME” value (Stellaria media (STEME) [21]; dosage 1280 g/ha) was 100%.
